According to patent publication US20170107229A1, “SUBSTITUTED TETRAHYDROPYRIDOTHIENOPYRIMIDINES” (BAYER PHARMA AKTIENGESELLSCHAFT, priority 2014, published 2017):

Molecular target: T1, human full-length MKNK1 (Homo sapiens, UniProt Q9BUB5, T385D)
T1 construct: GST (N); purchased Carna Biosciences 02-145; host or cells: insect cells (baculovirus expression system)
Assay: MKNK1 kinase high ATP assay (TR-FRET)
Assay type: biochemical
Conditions: high ATP (2 mM final), 15 min preincubation with enzyme, GST-MKNK1 (T344D)
Method: MKNK1-inhibitory activity at high ATP of compounds of the present invention after their preincubation with MKNK1 was quantified employing the TR-FRET-based MKNK1 high ATP assay as described in the following paragraphs.
A recombinant fusion protein of Glutathione-S-Transferase (GST, N-terminally) and human full-length MKNK1 (amino acids 1-424 and T344D of accession number BAA 19885.1), expressed in insect cells using baculovirus expression system and purified via glutathione sepharose affinity chromatography, was purchased from Carna Biosciences (product no 02-145) and used as enzyme. As substrate for the kinase reaction the biotinylated peptide biotin-Ahx-IKKRKLTRRKSLKG (C-terminus in amide form) was used, which can be purchased e.g. from the company Biosyntan (Berlin-Buch, Germany).
For the assay 50 nL of a 100fold concentrated solution of the test compound in DMSO was pipetted into a black low volume 384well microtiter plate (Greiner Bio-One, Frickenhausen, Germany), 2 μL of a solution of MKNK1 in aqueous assay buffer [50 mM HEPES pH 7.5, 5 mM MgCl2, 1.0 mM dithiothreitol, 0.005% (v/v) Nonidet-P40 (Sigma)] was added and the mixture was incubated for 15 min at 22° C. to allow pre-binding of the test compounds to the enzyme before the start of the kinase reaction. Then the kinase reaction was started by the addition of 3 μL of a solution of adenosine-tri-phosphate (ATP, 3.3 mM=>final conc. in the 5 μL assay volume is 2 mM) and substrate (0.1 μM=>final conc. in the 5 μL assay volume is 0.06 μM) in assay buffer and the resulting mixture was incubated for a reaction time of 30 min at 22° C. The concentration of MKNK1 was adjusted depending of the activity of the enzyme lot and was chosen appropriate to have the assay in the linear range, typical concentrations were in the range of 0.003 μg/mL. The reaction was stopped by the addition of 5 μL of a solution of TR-FRET detection reagents (5 nM streptavidine-XL665 [Cisbio Bioassays, Codolet, France] and 1 nM anti-ribosomal protein S6 (pSer236)-antibody from Invitrogen [#44921G] and 1 nM LANCE EU-W1024 labeled ProteinG [Perkin-Elmer, product no. AD0071]) in an aqueous EDTA-solution (100 mM EDTA, 0.1% (w/v) bovine serum albumin in 50 mM HEPES pH 7.5).
The resulting mixture was incubated for 1 h at 22° C. to allow the formation of complex between the phosphorylated biotinylated peptide and the detection reagents. Subsequently the amount of phosphorylated substrate was evaluated by measurement of the resonance energy transfer from the Eu-chelate to the streptavidine-XL. Therefore, the fluorescence emissions at 620 nm and 665 nm after excitation at 350 nm were measured in a TR-FRET reader, e.g. a Rubystar (BMG Labtechnologies, Offenburg, Germany) or a Viewlux (Perkin-Elmer). The ratio of the emissions at 665 nm and at […] was taken as the measure for the amount of phosphorylated substrate. The data were normalised (enzyme reaction without inhibitor=0% inhibition, all other assay components but no enzyme=100% inhibition).

T1 sequence (Q9BUB5 1-424 isoform Q9BUB5-2 T344D): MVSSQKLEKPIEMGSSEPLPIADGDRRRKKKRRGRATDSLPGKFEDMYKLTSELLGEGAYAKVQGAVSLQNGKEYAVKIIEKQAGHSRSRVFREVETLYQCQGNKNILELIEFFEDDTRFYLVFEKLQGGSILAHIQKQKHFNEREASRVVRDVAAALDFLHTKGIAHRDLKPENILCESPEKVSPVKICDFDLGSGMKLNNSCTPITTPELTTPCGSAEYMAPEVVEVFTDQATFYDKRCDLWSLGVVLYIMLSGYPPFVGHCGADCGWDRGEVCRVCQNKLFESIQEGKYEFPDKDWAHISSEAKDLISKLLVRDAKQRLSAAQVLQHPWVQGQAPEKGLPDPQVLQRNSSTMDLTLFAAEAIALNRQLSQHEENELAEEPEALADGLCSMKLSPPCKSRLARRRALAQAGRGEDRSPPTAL

IC50 [nM] | SMILES
113 | CC(C)C(=O)N1CCc2c(sc3ncnc(Nc4ccc5[nH]c(=O)sc5c4)c23)C1 [Example 18, 6-[(7-Isobutyryl-5,6,7,8-tetrahydropyrido[4′,3′:4,5]thieno[2,3-d]pyrimidin-4-yl)amino]-1,3-benzothiazol-2(3H)-one]
15 | CC(C)C(=O)N1CCc2c(sc3ncnc(Nc4ccc5[nH]ncc5c4)c23)C1 [Example 19, 1-[4-(1H-indazol-5-ylamino)-5,8-dihydropyrido[4′,3′:4,5]thieno[2,3-d]pyrimidin-7(6H)-yl]-2-methylpropan-1-one]
28 | CC(C)C(=O)N1CCc2c(sc3ncnc(Nc4cc5cn[nH]c5cn4)c23)C1 [Example 20, 2-Methyl-1-[4-(1H-pyrazolo[3,4-c]pyridin-5-ylamino)-5,8-dihydropyrido[4′,3′:4,5]thieno[2,3-d]pyrimidin-7(6H)-yl]propan-1-one]
40 | CC(C)C(=O)N1CCc2c(sc3ncnc(Nc4cnc5[nH]ncc5c4)c23)C1 [Example 21, 2-Methyl-1-[4-(1H-pyrazolo[3,4-b]pyridin-5-ylamino)-5,8-dihydropyrido[4′,3′:4,5]thieno[2,3-d]pyrimidin-7(6H)-yl]propan-1-one]
4 | COc1cc2[nH]ncc2cc1Nc1ncnc2sc3c(c12)CCN(C(=O)C(C)C)C3 [Example 22, 1-{4-[(6-Methoxy-1H-indazol-5-yl)amino]-5,8-dihydropyrido[4′,3′:4,5]thieno[2,3-d]pyrimidin-7(6H)-yl}-2-methylpropan-1-one]
25 | CS(=O)(=O)N1CCc2c(sc3ncnc(Nc4cc5cn[nH]c5cn4)c23)C1 [Example 23, 7-(Methylsulfonyl)-N-(1H-pyrazolo[3,4-c]pyridin-5-yl)-5,6,7,8-tetrahydropyrido[4′,3′:4,5]thieno[2,3-d]pyrimidin-4-amine]
28 | O=C(N1CCOCC1)N1CCc2c(sc3ncnc(Nc4cc5cn[nH]c5cn4)c23)C1 [Example 24, Morpholin-4-yl[4-(1H-pyrazolo[3,4-c]pyridin-5-ylamino)-5,8-dihydropyrido[4′,3′:4,5]thieno[2,3-d]pyrimidin-7(6H)-yl]methanone]
31 | CC(C)(C)OC(=O)N1CCc2c(sc3ncnc(Nc4cc5cn[nH]c5cc4Br)c23)C1 [Example 25, tert-Butyl 4-[(6-bromo-1H-indazol-5-yl)amino]-5,8-dihydropyrido[4′,3′:4,5]thieno[2,3-d]pyrimidine-7(6H)-carboxylate]
25 | CN(C)C(=O)N1CCc2c(sc3ncnc(Nc4cc5cn[nH]c5cc4Cl)c23)C1 [Example 27, 4-[(6-Chloro-1H-indazol-5-yl)amino]-N,N-dimethyl-5,8-dihydropyrido[4′,3′:4,5]thieno[2,3-d]pyrimidine-7(6H)-carboxamide]

More lines, now with the values behind:

SMILES | IC50 [nM]
CSc1cc2[nH]ncc2cc1Nc1ncnc2sc3c(c12)CCNC3 [Example 1, N-[6-(Methylsulfanyl)-1H-indazol-5-yl]-5,6,7,8-tetrahydropyrido[4′,3′:4,5]thieno[2,3-d]pyrimidin-4-amine] | 24
CSc1cc2[nH]ncc2cc1Nc1ncnc2sc3c(c12)CCN(C(=O)OC(C)(C)C)C3 [Example 2, tert-Butyl 4-{[6-(methylsulfanyl)-1H-indazol-5-yl]amino}-5,8-dihydropyrido[4′,3′:4,5]thieno[2,3-d]pyrimidine-7(6H)-carboxylate] | 16
CC(C)(C)OC(=O)N1CCc2c(sc3ncnc(Nc4ccc5[nH]c(=O)sc5c4)c23)C1 [Example 3, tert-Butyl 4-[(2-oxo-2,3-dihydro-1,3-benzothiazol-6-yl)amino]-5,8-dihydropyrido[4′,3′:4,5]thieno[2,3-d]pyrimidine-7(6H)-carboxylate] | 71
COc1cc2[nH]ncc2cc1Nc1ncnc2sc3c(c12)CCN(C(=O)OC(C)(C)C)C3 [Example 4, tert-Butyl 4-[(6-methoxy-1H-indazol-5-yl)amino]-5,8-dihydropyrido[4′,3′:4,5]thieno[2,3-d]pyrimidine-7(6H)-carboxylate] | 6
CC(C)(C)OC(=O)N1CCc2c(sc3ncnc(Nc4ccc5[nH]ncc5c4)c23)C1 [Example 5, tert-Butyl 4-(1H-indazol-5-ylamino)-5,8-dihydropyrido[4′,3′:4,5]thieno[2,3-d]pyrimidine-7(6H)-carboxylate] | 18
CC(C)(C)OC(=O)N1CCc2c(sc3ncnc(Nc4cnc5[nH]ncc5c4)c23)C1 [Example 6, tert-Butyl 4-(1H-pyrazolo[3,4-b]pyridin-5-ylamino)-5,8-dihydropyrido[4′,3′:4,5]thieno[2,3-d]pyrimidine-7(6H)-carboxylate] | 47
CC(C)(C)OC(=O)N1CCc2c(sc3ncnc(Nc4cc5cn[nH]c5cn4)c23)C1 [Example 7, tert-Butyl 4-(1H-pyrazolo[3,4-c]pyridin-5-ylamino)-5,8-dihydropyrido[4′,3′:4,5]thieno[2,3-d]pyrimidine-7(6H)-carboxylate] | 79
COc1cc2[nH]ncc2cc1Nc1ncnc2sc3c(c12)CCNC3 [Example 8, N-(6-Methoxy-1H-indazol-5-yl)-5,6,7,8-tetrahydropyrido[4′,3′:4,5]thieno[2,3-d]pyrimidin-4-amine] | 13
COc1cc2[nH]ncc2cc1Nc1ncnc2sc3c(c12)CCN(C(=O)CCCS(C)(=O)=O)C3 [Example 9, 1-{4-[(6-Methoxy-1H-indazol-5-yl)amino]-5,8-dihydropyrido[4′,3′:4,5]thieno[2,3-d]pyrimidin-7(6H)-yl}-4-(methylsulfonyl)butan-1-one] | 2
FC(F)(F)CN1CCc2c(sc3ncnc(Nc4cnc5[nH]ncc5c4)c23)C1 [Example 10, N-(1H-Pyrazolo[3,4-b]pyridin-5-yl)-7-(2,2,2-trifluoroethyl)-5,6,7,8-tetrahydropyrido[4′,3′:4,5]thieno[2,3-d]pyrimidin-4-amine] | 79
CSc1cc2[nH]ncc2cc1Nc1ncnc2sc3c(c12)CCN(CC(F)(F)F)C3 [Example 11, N-[6-(Methylsulfanyl)-1H-indazol-5-yl]-7-(2,2,2-trifluoroethyl)-5,6,7,8-tetrahydropyrido[4′,3′:4,5]thieno[2,3-d]pyrimidin-4-amine] | 15
COc1cc2[nH]ncc2cc1Nc1ncnc2sc3c(c12)CCN(CC(F)(F)F)C3 [Example 12, N-(6-Methoxy-1H-indazol-5-yl)-7-(2,2,2-trifluoroethyl)-5,6,7,8-tetrahydropyrido[4′3′:4,5]thieno[2,3-d]pyrimidin-4-amine] | 99
CN(C)C(=O)N1CCc2c(sc3ncnc(Nc4cnc5[nH]ncc5c4)c23)C1 [Example 13, N,N-Dimethyl-4-(1H-pyrazolo[3,4-b]pyridin-5-ylamino)-5,8-dihydropyrido[4′,3′:4,5]thieno[2,3-d]pyrimidine-7(6H)-carboxamide] | 48
CN(C)C(=O)N1CCc2c(sc3ncnc(Nc4cc5cn[nH]c5cn4)c23)C1 [Example 14, N,N-Dimethyl-4-(1H-pyrazolo[3,4-c]pyridin-5-ylamino)-5,8-dihydropyrido[4′,3′:4,5]thieno[2,3-d]pyrimidine-7(6H)-carboxamide] | 30
CN(C)C(=O)N1CCc2c(sc3ncnc(Nc4ccc5[nH]ncc5c4)c23)C1 [Example 15, 4-(1H-Indazol-5-ylamino)-N,N-dimethyl-5,8-dihydropyrido[4′,3′:4,5]thieno[2,3-d]pyrimidine-7(6H)-carboxamide] | 32
COc1cc2[nH]ncc2cc1Nc1ncnc2sc3c(c12)CCN(C(=O)N(C)C)C3 [Example 16, 4-[(6-Methoxy-1H-indazol-5-yl)amino]-N,N-dimethyl-5,8-dihydropyrido[4′,3′:4,5]thieno[2,3-d]pyrimidine-7(6H)-carboxamide] | 4
CN(C)C(=O)N1CCc2c(sc3ncnc(Nc4ccc5[nH]c(=O)sc5c4)c23)C1 [Example 17, N,N-Dimethyl-4-[(2-oxo-2,3-dihydro-1,3-benzothiazol-6-yl)amino]-5,8-dihydropyrido[4′,3′:4,5]thieno[2,3-d]pyrimidine-7(6H)-carboxamide] | 88
